Reference: US9394282B2, “Pyrazole carboxamides as Janus kinase inhibitors” (Merck Sharp & Dohme Corp., priority 2011, dated 2016)

Key:
JAK1 = JAK1 (Homo sapiens (Human), UniProt P23458); assay: Jak biochemical HTRF assay, JAK1; details: recombinant purified GST-tagged catalytic domain; HTRF format; [ATP] 31.8 μM
Text: (§1) Jak Biochemical HTRF Assay Protocol
(§2) Subsequent reagent additions employed an Agilent Bravo.

JAK2 = JAK2 (Homo sapiens (Human), UniProt O60674); assay: Jak biochemical HTRF assay, JAK2; details: recombinant purified GST-tagged catalytic domain; HTRF format; [ATP] 8.5 μM
Text: as §1, §2

JAK2, sequence (O60674 849-1124): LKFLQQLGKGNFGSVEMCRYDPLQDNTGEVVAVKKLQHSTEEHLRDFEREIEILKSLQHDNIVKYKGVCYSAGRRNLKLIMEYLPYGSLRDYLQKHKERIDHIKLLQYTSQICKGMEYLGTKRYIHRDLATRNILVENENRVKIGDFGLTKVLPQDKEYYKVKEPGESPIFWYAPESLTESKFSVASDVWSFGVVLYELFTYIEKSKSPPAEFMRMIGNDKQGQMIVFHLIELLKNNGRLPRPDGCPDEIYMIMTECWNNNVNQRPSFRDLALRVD
JAK1, sequence (P23458 875-1153): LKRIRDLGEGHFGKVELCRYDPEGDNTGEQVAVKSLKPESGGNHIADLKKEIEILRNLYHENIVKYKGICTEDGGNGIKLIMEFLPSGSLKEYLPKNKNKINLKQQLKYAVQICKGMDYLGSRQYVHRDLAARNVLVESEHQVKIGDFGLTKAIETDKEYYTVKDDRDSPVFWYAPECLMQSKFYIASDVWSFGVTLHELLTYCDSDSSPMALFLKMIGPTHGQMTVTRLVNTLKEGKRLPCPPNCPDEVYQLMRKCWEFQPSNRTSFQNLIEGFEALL

SMILES | IC50 (JAK1) [nM] | IC50 (JAK2) [nM]
N#C[C@@H]1CN(C(=O)OCCCc2ccccc2)CC[C@H]1n1cc(C(N)=O)c(Nc2ccc(F)cc2)n1 (racemic) [Example 5-3, 3-phenylpropyl (3R,4R and 3S,4S)-4-{4-carbamoyl-3-[(4-fluorophenyl)amino]-1H-pyrazol-1-yl}-3-cyanopiperidine-1-carboxylate] | 44 | 1010
N#C[C@@H]1CN(C(=O)OC2COC2)CC[C@H]1n1cc(C(N)=O)c(Nc2ccc(F)cc2)n1 (racemic) [Example 5-5, oxetan-3-yl (3R,4R and 3S,4S)-4-{4-carbamoyl-3-[(4-fluorophenyl)amino]-1H-pyrazol-1-yl}-3-cyanopiperidine-1-carboxylate] | 12 | 185
CN1CCC(COC(=O)N2CC[C@@H](n3cc(C(N)=O)c(Nc4ccc(F)cc4)n3)[C@H](C#N)C2)CC1 (racemic) [Example 5-7, (1-methylpiperidin-4-yl)methyl (3R,4R and 3S,4S)-4-{4-carbamoyl-3-[(4-fluorophenyl)amino]-1H-pyrazol-1-yl}-3-cyanopiperidine-1-carboxylate] | 23 | 1090
N#C[C@@H]1CN(C(=O)OCC2(N)CC2)CC[C@H]1n1cc(C(N)=O)c(Nc2ccc(F)cc2)n1 (racemic) [Example 5-8, (1-aminocyclopropyl)methyl (3R,4R and 3S,4S)-4-{4-carbamoyl-3-[(4-fluorophenyl)amino]-lH-pyrazol-1-yl}-3-cyanopiperidine-1-carboxylate] | 13 | 703
N#C[C@@H]1CN(C(=O)OCCN2CCCC2)CC[C@H]1n1cc(C(N)=O)c(Nc2ccc(F)cc2)n1 (racemic) [Example 5-19, 2-pyrrolidin-1-ylethyl (3R,4R and 3S,4S)-4-{4-carbamoyl-3-[(4-fluorophenyl)amino]-1H-pyrazol-1-yl}-3-cyanopiperidine-1-carboxylate] | 22 | 1100
CN1CCC(OC(=O)N2CC[C@@H](n3cc(C(N)=O)c(Nc4ccc(F)cc4)n3)[C@H](C#N)C2)CC1 (racemic) [Example 5-26, 1-methylpiperidin-4-yl (3R,4R and 3S,4S)-4-{4-carbamoyl-3-[(4-fluorophenyl)amino]-1H-pyrazol-1-yl}-3-cyanopiperidine-1-carboxylate] | 58 | > 1500

Second part, the molecule after the results:

IC50 (JAK1) [nM] | IC50 (JAK2) [nM] | SMILES
4 | 104 | N#C[C@@H]1CN(C(=O)OCCF)CC[C@H]1n1cc(C(N)=O)c(Nc2ccc(F)cc2)n1 (racemic) [Example 5-2, 2-fluoroethyl (3R,4R and 3S,4S)-4-{4-carbamoyl-3-[(4-fluorophenyl)amino]-1H-pyrazol-1-yl}-3-cyanopiperidine-1-carboxylate]
5 | 106 | N#C[C@@H]1CN(C(=O)OCC(F)(F)CO)CC[C@H]1n1cc(C(N)=O)c(Nc2ccc(F)cc2)n1 (racemic) [Example 5-20, 2,2-difluoro-3-hydroxypropyl (3R,4R and 3S,4S)-4-{4-carbamoyl-3-[(4-fluorophenyl)amino]-1H-pyrazol-1-yl}-3-cyanopiperidine-1-carboxylate]
88 | > 1500 | CN(C)CC(C)(C)COC(=O)N1CC[C@@H](n2cc(C(N)=O)c(Nc3ccc(F)cc3)n2)[C@H](C#N)C1 (racemic) [Example 5-21, 3-(dimethylamino)-2,2-dimethylpropyl (3R,4R and 3S,4S)-4-{4-carbamoyl-3-[(4-fluorophenyl)amino]-1H-pyrazol-1-yl}-3-cyanopiperidine-1-carboxylate]
9 | 202 | COCCOC(=O)N1CC[C@@H](n2cc(C(N)=O)c(Nc3ccc(F)cc3)n2)[C@H](C#N)C1 (racemic) [Example 5-29, 2-methoxyethyl (3R,4R and 3S,4S)-4-{4-carbamoyl-3-[(4-fluorophenyl)amino]-1H-pyrazol-1-yl}-3-cyanopiperidine-1-carboxylate]
